# Experiments:
# [1] = Inhibition of CBP (unknown origin) by AlphaScreen assay; design: species or system Homo sapiens
# [2] = target: T1, Bromodomain-containing protein 4 (Homo sapiens, UniProt O60885); test: Inhibition of BRD4 bromodomain-1 (unknown origin) by AlphaScreen assay
# [3] = target: Histone acetyltransferase KAT2B (Homo sapiens) (UniProt Q92831); test: Binding affinity to PCAF bromodomain (unknown origin) assessed as change in melting temperature at 10 uM by differential scanning fluorimetric analysis
# [4] = target: T2, Bromodomain-containing protein 9 (Homo sapiens) (UniProt Q9H8M2); test: Binding affinity to BRD9 bromodomain (unknown origin) assessed as change in melting temperature at 10 uM by differential scanning fluorimetric analysis
# T2 sequence (whole entry): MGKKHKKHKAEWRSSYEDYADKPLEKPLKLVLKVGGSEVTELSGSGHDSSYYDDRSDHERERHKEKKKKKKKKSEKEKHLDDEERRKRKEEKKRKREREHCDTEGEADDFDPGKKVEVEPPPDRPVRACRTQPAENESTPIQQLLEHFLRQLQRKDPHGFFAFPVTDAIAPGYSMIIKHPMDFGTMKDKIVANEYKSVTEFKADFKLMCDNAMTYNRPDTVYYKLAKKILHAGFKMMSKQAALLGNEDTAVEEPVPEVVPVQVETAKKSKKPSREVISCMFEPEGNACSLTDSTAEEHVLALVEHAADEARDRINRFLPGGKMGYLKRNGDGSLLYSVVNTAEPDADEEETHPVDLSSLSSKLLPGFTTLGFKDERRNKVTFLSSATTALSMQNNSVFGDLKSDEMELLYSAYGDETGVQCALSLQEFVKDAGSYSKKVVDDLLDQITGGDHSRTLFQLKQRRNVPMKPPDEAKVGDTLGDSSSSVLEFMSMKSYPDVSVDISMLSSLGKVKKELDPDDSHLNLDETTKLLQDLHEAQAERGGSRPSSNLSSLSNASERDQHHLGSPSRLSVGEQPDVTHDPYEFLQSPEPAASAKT
# [5] = target: PH-interacting protein (Homo sapiens) (UniProt Q8WWQ0); test: Binding affinity to PHIP bromodomain-2 (unknown origin) assessed as change in melting temperature at 10 uM by differential scanning fluorimetric analysis
# [6] = target: Protein polybromo-1 (Homo sapiens) (UniProt Q86U86); test: Binding affinity to PB1-5 bromodomain (unknown origin) assessed as change in melting temperature at 10 uM by differential scanning fluorimetric analysis
# [7] = target: T3, ATPase family AAA domain-containing protein 2 (Homo sapiens) (UniProt Q6PL18); test: Binding affinity to ATAD2 bromodomain (unknown origin) assessed as change in melting temperature at 10 uM by differential scanning fluorimetric analysis
# T3 sequence (whole entry): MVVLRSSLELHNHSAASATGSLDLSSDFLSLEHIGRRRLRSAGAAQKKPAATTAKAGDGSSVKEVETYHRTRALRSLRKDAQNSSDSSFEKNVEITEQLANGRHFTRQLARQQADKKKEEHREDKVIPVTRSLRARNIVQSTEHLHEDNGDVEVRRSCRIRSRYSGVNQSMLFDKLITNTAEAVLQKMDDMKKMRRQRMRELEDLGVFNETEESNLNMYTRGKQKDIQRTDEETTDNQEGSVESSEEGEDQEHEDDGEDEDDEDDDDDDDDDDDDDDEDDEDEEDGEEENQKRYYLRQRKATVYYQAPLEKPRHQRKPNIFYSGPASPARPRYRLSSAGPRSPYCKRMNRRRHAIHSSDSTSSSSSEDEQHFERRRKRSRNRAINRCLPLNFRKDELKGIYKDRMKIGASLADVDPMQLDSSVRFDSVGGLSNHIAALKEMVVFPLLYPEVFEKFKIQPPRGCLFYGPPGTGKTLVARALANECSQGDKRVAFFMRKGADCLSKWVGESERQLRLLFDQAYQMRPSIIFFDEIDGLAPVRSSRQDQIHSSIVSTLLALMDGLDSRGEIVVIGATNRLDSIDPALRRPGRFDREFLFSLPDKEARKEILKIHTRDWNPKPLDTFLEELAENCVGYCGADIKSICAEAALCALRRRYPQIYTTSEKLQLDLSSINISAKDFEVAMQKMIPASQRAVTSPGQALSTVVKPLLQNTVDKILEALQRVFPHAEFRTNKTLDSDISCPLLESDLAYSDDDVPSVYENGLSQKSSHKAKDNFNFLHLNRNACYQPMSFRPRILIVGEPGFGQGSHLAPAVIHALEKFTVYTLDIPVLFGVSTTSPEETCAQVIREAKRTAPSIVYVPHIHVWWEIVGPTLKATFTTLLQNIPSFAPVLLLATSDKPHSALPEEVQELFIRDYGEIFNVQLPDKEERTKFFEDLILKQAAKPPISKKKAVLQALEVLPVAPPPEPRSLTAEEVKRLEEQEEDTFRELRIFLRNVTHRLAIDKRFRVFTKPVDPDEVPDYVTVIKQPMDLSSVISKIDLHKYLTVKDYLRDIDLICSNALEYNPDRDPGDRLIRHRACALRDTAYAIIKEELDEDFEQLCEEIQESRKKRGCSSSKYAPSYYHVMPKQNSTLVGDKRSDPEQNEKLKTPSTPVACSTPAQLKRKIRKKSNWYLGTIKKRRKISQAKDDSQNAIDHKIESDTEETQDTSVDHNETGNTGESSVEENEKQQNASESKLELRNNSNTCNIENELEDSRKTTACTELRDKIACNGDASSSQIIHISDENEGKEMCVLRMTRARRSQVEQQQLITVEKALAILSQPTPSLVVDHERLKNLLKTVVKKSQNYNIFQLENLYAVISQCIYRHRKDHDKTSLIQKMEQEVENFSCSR
# [8] = target: T4, Transcription intermediary factor 1-alpha (Homo sapiens) (UniProt O15164); test: Binding affinity to TIF1alpha bromodomain (unknown origin) assessed as change in melting temperature at 10 uM by differential scanning fluorimetric analysis
# T4 sequence (whole entry): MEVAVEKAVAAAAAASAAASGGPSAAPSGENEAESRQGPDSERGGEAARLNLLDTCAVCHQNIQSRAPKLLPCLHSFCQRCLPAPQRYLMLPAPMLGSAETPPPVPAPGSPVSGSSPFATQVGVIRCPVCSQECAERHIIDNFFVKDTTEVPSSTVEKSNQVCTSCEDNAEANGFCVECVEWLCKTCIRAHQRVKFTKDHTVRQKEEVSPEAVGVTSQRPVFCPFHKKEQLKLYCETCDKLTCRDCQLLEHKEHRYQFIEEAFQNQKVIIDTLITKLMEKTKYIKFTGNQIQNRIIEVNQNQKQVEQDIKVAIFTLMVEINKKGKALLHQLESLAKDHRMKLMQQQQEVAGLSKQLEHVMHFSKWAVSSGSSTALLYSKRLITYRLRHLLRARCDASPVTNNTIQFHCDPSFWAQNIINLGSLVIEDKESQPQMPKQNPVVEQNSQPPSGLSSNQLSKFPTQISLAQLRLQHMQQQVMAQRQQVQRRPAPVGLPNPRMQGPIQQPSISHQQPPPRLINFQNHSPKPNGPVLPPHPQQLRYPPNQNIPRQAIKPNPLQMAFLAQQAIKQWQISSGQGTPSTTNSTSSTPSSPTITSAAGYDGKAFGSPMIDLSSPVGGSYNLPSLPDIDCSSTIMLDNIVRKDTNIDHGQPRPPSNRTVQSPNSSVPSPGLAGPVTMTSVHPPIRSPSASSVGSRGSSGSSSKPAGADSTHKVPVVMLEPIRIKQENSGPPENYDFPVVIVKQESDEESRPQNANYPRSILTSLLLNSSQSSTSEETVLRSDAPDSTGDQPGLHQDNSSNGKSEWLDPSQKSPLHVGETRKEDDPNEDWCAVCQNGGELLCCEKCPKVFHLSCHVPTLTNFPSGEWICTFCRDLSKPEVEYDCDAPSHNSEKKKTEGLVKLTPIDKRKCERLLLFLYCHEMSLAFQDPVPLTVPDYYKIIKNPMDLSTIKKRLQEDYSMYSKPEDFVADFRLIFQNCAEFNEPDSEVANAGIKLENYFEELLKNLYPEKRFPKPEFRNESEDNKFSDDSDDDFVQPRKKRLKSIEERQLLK
# [9] = species: Homo sapiens; test: Binding affinity to CBP (unknown origin) assessed as change in melting temperature at 10 uM by differential scanning fluorimetric analysis
# [10] = target: T1, Bromodomain-containing protein 4; test: Binding affinity to BRD4 bromodomain-2 (unknown origin) assessed as change in melting temperature at 10 uM by differential scanning fluorimetric analysis
# [11] = species: Homo sapiens; test: Selectivity ratio of IC50 for BRD4 bromodomain-1 (unknown origin) to IC50 for CBP (unknown origin)
# [12] = target: Transcription initiation factor TFIID subunit 1 (Homo sapiens) (UniProt P21675); test: Binding affinity to TAF1 bromodomain-2 (unknown origin) assessed as change in melting temperature at 10 uM by differential scanning fluorimetric analysis
# Chain of Transcription initiation factor TFIID subunit 1 (Homo sapiens) (P21675 whole entry): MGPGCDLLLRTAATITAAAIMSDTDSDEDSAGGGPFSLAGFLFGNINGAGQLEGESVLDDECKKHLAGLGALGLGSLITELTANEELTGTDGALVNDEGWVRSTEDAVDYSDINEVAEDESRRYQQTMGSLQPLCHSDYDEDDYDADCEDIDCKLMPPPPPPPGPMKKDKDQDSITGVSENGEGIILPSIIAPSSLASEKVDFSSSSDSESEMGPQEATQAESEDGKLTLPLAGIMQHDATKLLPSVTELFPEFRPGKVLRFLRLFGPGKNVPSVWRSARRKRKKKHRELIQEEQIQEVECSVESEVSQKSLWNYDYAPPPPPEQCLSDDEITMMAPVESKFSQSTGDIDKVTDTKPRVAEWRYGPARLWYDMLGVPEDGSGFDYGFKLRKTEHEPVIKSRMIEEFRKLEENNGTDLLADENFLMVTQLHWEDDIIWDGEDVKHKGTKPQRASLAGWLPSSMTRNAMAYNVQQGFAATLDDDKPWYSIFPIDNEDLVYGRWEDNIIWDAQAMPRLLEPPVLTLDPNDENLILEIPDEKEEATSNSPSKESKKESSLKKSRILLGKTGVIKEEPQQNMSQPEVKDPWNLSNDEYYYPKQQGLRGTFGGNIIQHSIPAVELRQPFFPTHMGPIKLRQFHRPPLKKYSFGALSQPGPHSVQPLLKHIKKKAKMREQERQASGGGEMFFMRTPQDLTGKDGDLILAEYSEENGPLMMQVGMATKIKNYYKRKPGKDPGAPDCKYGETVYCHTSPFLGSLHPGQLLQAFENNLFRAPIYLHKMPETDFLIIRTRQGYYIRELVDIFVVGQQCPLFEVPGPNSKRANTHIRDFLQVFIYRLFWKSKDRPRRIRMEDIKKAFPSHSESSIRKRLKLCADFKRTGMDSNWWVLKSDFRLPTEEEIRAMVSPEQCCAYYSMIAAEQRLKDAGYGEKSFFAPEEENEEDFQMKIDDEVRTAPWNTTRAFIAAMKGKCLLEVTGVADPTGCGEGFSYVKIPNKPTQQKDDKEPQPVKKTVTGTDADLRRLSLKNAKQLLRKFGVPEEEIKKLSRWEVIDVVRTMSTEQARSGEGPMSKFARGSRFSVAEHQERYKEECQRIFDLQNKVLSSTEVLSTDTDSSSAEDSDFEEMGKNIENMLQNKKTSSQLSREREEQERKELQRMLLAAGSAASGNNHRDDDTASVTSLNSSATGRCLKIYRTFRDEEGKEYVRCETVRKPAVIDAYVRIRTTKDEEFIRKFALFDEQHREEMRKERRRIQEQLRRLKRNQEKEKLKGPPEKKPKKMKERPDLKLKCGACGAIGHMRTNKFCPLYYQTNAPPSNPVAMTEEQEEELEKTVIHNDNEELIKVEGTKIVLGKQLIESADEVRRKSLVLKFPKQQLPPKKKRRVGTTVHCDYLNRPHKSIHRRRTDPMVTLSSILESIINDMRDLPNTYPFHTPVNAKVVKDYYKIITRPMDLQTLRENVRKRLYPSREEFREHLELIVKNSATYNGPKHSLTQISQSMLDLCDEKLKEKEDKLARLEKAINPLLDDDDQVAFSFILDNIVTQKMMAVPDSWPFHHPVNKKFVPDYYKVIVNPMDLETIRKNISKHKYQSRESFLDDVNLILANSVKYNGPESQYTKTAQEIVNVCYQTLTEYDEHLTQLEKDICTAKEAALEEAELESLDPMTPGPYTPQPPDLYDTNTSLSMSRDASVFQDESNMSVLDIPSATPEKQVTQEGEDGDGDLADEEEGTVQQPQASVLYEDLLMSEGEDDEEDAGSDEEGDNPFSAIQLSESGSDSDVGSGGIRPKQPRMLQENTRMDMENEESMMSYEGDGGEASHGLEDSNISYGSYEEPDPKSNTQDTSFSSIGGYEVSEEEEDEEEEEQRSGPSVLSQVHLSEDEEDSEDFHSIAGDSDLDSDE
# Chain of Protein polybromo-1 (Homo sapiens) (Q86U86 whole entry, the tested form may be a part): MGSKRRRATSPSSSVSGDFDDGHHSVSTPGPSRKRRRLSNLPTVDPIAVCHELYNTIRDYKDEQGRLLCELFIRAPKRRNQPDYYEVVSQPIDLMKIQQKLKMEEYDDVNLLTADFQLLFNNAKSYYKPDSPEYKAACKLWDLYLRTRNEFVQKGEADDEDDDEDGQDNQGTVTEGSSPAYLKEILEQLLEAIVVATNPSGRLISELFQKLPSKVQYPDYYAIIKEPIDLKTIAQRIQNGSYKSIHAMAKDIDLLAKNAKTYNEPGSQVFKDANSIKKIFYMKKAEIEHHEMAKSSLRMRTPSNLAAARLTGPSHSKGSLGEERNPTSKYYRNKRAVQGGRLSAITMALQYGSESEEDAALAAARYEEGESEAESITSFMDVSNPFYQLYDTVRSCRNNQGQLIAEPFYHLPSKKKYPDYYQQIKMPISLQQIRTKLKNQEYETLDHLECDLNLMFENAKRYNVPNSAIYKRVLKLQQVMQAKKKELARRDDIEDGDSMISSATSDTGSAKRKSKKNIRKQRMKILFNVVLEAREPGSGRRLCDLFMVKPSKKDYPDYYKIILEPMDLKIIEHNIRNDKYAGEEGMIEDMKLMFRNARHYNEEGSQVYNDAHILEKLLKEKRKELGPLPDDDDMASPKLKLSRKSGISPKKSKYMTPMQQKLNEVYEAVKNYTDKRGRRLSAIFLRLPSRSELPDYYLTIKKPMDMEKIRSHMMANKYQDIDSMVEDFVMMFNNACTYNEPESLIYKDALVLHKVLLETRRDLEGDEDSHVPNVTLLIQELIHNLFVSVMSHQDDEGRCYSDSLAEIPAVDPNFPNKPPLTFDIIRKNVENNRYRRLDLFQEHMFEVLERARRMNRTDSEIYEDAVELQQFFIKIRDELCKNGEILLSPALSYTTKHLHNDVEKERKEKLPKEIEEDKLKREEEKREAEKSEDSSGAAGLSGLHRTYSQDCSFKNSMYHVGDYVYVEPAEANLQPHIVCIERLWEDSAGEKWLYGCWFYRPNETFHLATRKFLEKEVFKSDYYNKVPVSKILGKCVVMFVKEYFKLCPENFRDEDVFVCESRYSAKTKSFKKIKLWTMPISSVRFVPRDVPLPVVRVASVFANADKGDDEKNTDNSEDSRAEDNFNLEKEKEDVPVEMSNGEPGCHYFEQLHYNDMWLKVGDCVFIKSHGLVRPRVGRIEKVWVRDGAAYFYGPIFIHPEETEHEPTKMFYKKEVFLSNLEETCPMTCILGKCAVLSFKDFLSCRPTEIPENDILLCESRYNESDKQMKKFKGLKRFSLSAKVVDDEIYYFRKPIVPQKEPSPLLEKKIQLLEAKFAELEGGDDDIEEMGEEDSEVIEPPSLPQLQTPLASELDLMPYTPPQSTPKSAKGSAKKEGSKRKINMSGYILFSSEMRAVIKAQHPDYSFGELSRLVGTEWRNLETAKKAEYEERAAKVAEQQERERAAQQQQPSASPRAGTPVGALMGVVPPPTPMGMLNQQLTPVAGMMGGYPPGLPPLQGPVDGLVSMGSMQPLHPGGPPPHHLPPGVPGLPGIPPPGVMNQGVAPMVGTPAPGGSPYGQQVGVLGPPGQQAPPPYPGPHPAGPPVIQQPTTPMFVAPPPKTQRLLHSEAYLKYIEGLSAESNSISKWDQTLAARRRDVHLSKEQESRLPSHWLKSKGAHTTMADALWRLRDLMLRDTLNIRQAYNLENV
# Chain of Histone acetyltransferase KAT2B (Homo sapiens) (Q92831 whole entry, looked up): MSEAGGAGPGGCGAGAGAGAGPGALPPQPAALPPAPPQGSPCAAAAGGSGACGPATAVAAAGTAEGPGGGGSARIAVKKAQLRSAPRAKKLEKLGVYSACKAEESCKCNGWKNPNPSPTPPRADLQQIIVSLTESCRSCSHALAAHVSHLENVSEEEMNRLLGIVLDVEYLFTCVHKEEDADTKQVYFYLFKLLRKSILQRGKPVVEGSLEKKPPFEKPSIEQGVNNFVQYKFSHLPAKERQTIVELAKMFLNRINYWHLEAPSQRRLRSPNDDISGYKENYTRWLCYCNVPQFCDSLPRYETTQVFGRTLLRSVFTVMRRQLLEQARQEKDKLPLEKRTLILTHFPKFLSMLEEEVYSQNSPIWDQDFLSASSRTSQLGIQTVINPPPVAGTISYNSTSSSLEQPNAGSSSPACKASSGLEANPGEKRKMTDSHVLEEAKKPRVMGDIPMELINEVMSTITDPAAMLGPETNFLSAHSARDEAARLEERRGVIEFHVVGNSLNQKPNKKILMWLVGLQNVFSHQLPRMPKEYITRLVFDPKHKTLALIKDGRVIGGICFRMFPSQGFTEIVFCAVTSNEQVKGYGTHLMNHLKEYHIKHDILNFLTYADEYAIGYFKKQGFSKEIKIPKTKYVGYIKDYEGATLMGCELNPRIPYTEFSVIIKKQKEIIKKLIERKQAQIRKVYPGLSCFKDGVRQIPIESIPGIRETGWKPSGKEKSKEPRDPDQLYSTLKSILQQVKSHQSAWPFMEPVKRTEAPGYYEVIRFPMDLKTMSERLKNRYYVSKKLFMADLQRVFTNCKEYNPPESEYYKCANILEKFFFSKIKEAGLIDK
pIC50 [1],IC50 ([2]; read-out: pIC50 (converted)) [µM],Compound,also measured
4.6,1.58,COc1ccc(Cn2c(C)nc3ccc(-c4c(C)noc4C)cc32)cc1,–
4.7,1.26,Cc1noc(C)c1-c1ccc2ncn(Cc3cccc(Cl)c3)c2c1,–
< 4,1.26,COC(=O)c1ccc(Cn2cnc3ccc(-c4c(C)noc4C)cc32)cc1,–
–,6.31,Cc1noc(C)c1-c1ccc2c(c1)C(OCCCN1CCOCC1)CC2 (racemic),–
–,6.31,Cc1noc(C)c1-c1ccc2c(c1)C(OCCCN1CCCC1)CC2 (racemic),–
4.9,0.631,Cc1noc(C)c1-c1ccc2ncn(Cc3cccc(F)c3)c2c1,–
< 5,20,Cc1noc(C)c1-c1ccc2cc[nH]c2c1,–
< 4,0.631,Cc1noc(C)c1-c1ccc2ncn(Cc3ccccc3[N+](=O)[O-])c2c1,–
< 4.6,63.1,Cc1noc(C)c1-c1ccc2c(c1)C(=O)CC2,–
4.8,12.6,Cc1noc(C)c1-c1ccc2c(c1)ncn2Cc1ccccc1[N+](=O)[O-],–
< 5,1,Cc1noc(C)c1-c1ccc2ncn(Cc3cccc(Br)c3)c2c1,–
–,3.98,Cc1noc(C)c1-c1ccc2c(c1)C(OCCCN1CCNCC1)CC2 (racemic),–
5.2,0.631,Cc1noc(C)c1-c1ccc2ncn(Cc3cccc(C(=O)N(C)C)c3)c2c1,–
5.1,2,Cc1noc(C)c1-c1ccc2c(c1)nc(C)n2Cc1ccc(O)cc1,–
< 5,0.794,COc1ccc(Cn2cnc3ccc(-c4c(C)noc4C)cc32)cc1,–
4.7,1.26,Cc1noc(C)c1-c1ccc2c(c1)C(O)(c1ccccc1)CC2 (racemic),–
5.9,1,Cc1noc(C)c1-c1ccc2ncn(Cc3ccccc3C#N)c2c1,–
–,31.6,Cc1noc(C)c1-c1ccc2c(c1)C(OCc1ccccc1)CC2 (racemic),–
–,20,Cc1noc(C)c1-c1ccc2c(c1)C(OCc1ccc3ccccc3n1)CC2 (racemic),–
5.7,2.51,Cc1noc(C)c1-c1ccc2c(c1)ncn2Cc1ccc(Cl)cc1,–
5.4,6.31,Cc1noc(C)c1-c1ccc2nc[nH]c2c1,–
< 5,0.794,Cc1noc(C)c1-c1ccc2ncn(Cc3ccccc3Cl)c2c1,–
5.2,2,Cc1noc(C)c1-c1ccc2ncn(Cc3ccc(C(=O)N(C)C)cc3)c2c1,–
< 4,3.98,Cc1noc(C)c1-c1ccc2ncn(Cc3ccc(Cl)c(Cl)c3)c2c1,–
5.9,10,Cc1noc(C)c1-c1ccc2c(c1)ncn2Cc1ccc(Cl)c(Cl)c1,–
–,6.31,Cc1noc(C)c1-c1ccc2c(c1)C(OCCCN1CCCCC1)CC2 (racemic),–
5.6,1.58,Cc1noc(C)c1-c1ccc2c(c1)ncn2Cc1cccc(Br)c1,–
< 4,0.2,Cc1noc(C)c1-c1ccc2ncn(Cc3ccc(C#N)cc3)c2c1,ΔTm [3]: -0.2 °C; ΔTm [4]: 0.1 °C; ΔTm [5]: -0.4 °C; ΔTm [6]: -0.1 °C; ΔTm [7]: -0.1 °C; ΔTm [8]: -0.2 °C; ΔTm [9]: 1.1 °C; ΔTm [10]: 3.2 °C; IC50 ([2]; read-out: IC50): 0.18 µM; Ratio IC50 [11]: 100; ΔTm [12]: 0 °C
